Measurements: patent US20060194837A1, “Tetrahydroisoquinoline compounds” (priority 2004, published 2006)

Columns and labels:
human H3 receptor = target: T1, human H3 receptor (Homo sapiens, UniProt Q9Y5N1); test: H3 receptor binding (N-[3H]-α-methylhistamine displacement); settings: membranes of SK-N-MC cells expressing cloned human H3 receptor, 0.8 nM N-[3H]-α-methylhistamine, 60 min at 25° C.
T1 construct: expressed in transfected cells
Method: Briefly, cell pellets from SK-N-MC cells expressing the human H3 receptor were homogenized in 50 mM Tris-HCl/5 mM EDTA and re-centrifuged at 30,000 g for 30 min. Pellets were re-homogenized in 50 mM Tris/6 mM EDTA (pH 7.4). Membranes were incubated with 0.8 nM N-[^3H]-α-methylhistamine plus/minus test compounds for 60 min at 25° C. and harvested by rapid filtration over GF/C glass fiber filters (pretreated with 0.3% polyethylenimine) followed by four washes with ice-cold buffer. Nonspecific binding was defined in the presence of 10 μM histamine.

Rat SERT = target: T2, Rat SERT (Rattus norvegicus, UniProt P31652); test: Rat brain SERT binding ([3H]-citalopram displacement); settings: rat brain membranes without cerebellum, 0.6 nM [3H]-citalopram, 60 min at 25° C.; read-out: Rat SERT Ki
T2 construct: A rat brain without cerebellum (Zivic Laboratories, Inc.—Pittsburgh, Pa.) was homogenized; tissue Zivic Laboratories, Inc; host or cells: rat brain without cerebellum, membranes
Method: The supernatant was removed and re-centrifuged at 15,000 rpm for 30 min. […] Membranes were incubated with 0.6 nM [^3H]-Citalopram plus/minus test compounds for 60 min at 25° C. and harvested by rapid filtration over GF/C glass fiber filters (pretreated with 0.3% polyethylenimine) followed by four washes with ice-cold buffer.

T1 sequence (Q9Y5N1 whole entry): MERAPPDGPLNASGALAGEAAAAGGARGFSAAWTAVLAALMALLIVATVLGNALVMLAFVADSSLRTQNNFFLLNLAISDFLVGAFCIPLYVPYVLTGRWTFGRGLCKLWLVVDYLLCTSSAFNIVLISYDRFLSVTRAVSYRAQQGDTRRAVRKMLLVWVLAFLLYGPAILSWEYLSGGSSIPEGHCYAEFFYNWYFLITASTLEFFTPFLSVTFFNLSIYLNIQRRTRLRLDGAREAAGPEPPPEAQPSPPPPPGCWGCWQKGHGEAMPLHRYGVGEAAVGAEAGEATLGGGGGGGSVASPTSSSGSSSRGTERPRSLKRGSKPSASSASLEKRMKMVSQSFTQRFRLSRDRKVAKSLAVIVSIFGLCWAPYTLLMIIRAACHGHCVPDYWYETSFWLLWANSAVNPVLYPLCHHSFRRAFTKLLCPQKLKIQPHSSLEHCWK
T2 sequence (P31652 whole entry): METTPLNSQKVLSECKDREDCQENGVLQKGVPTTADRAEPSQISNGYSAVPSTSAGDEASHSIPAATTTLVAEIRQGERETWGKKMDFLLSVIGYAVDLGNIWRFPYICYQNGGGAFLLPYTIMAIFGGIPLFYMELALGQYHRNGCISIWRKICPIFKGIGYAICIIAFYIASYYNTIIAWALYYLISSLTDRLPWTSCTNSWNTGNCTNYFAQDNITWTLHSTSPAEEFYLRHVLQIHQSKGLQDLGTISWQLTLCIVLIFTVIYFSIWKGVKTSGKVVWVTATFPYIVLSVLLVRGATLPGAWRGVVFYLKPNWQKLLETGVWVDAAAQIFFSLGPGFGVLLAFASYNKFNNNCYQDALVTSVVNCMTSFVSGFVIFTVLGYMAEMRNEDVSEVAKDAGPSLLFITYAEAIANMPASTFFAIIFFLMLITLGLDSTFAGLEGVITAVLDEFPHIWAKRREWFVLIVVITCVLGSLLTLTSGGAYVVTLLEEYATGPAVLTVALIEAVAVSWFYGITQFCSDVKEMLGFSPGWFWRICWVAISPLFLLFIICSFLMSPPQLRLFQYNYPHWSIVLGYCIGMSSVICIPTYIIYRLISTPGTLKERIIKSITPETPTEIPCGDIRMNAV

Structure (SMILES) | Ki (human H3 receptor) [nM] | Ki (Rat SERT) [nM]
COc1ccc(C2CN(C)Cc3cc(OCC4CCN(C(C)C)CC4)ccc32)cc1Cl (centres unmarked) [Example 88, 4-(3-Chloro-4-methoxy-phenyl)-7-(1-isopropyl-piperidin-4-ylmethoxy)-2-methyl-1,2,3,4-tetrahydro-isoquinoline] | 3 | 15
COc1ccc(C2CN(C(C)c3ccccc3)Cc3cc(OCCCN4CCOCC4)ccc32)cc1 (single isomer, unassigned) [Example 75A, 4-(4-Methoxy-phenyl)-7-(3-morpholin-4-yl-propoxy)-2-(1-phenyl-ethyl)-1,2,3,4-tetrahydro-isoquinoline] | 7 | 2000
CN1Cc2cc(OCCCN3CCC(F)CC3)ccc2C(c2ccc(C#C[Si](C)(C)C)nc2)C1 (centres unmarked) [Example 189, 7-[3-(4-Fluoro-piperidin-1-yl)-propoxy]-2-methyl-4-(6-trimethylsilanylethynyl-pyridin-3-yl)-1,2,3,4-tetrahydro-isoquinoline] | 12 | 108
COc1ccc(C2CN(C)Cc3cc(OCCCN4CCC(C(F)(F)F)CC4)ccc32)cc1 (centres unmarked) [Example 38, 4-(4-Methoxy-phenyl)-2-methyl-7-[3-(4-trifluoromethyl-piperidin-1-yl)-propoxy]-1,2,3,4-tetrahydro-isoquinoline] | 38 | 29
CCCN1CCC(COc2ccc3c(c2)CN(C)CC3c2ccc(OC)c(Cl)c2)CC1 (centres unmarked) [Example 108, 4-(3-Chloro-4-methoxy-phenyl)-2-methyl-7-(1-propyl-piperidin-4-ylmethoxy)-1,2,3,4-tetrahydro-isoquinoline] | 12 | 13
COc1ccc(C2CN(C)Cc3cc(OCC4CCN(C5CCCC5)CC4)ccc32)cc1 (centres unmarked) [Example 86, 7-(1-Cyclopentyl-piperidin-4-ylmethoxy)-4-(4-methoxy-phenyl)-2-methyl-1,2,3,4-tetrahydro-isoquinoline] | 11 | 5
COc1ccc(C2CN(C)Cc3cc(OCCCN4CCOCC4)c(C)cc32)cc1F (centres unmarked) [Example 267, 4-(3-Fluoro-4-methoxy-phenyl)-2,6-dimethyl-7-(3-morpholin-4-yl-propoxy)-1,2,3,4-tetrahydro-isoquinoline] | 12 | 25
CCN1CCC(Oc2ccc3c(c2)CN(C)CC3c2cccc(OC)c2)CC1 (centres unmarked) [Example 100, 7-(1-Ethyl-piperidin-4-yloxy)-4-(3-methoxy-phenyl)-2-methyl-1,2,3,4-tetrahydro-isoquinoline] | 2 | 10
COc1ccc(C2CN(C)Cc3cc(OCCCN(C4CC4)C4CC4)ccc32)cc1 (centres unmarked) [Example 235, Dicyclopropyl-{3-[4-(4-methoxy-phenyl)-2-methyl-1,2,3,4-tetrahydro-isoquinolin-7-yloxy]-propyl}-amine] | 6 | 7
COc1ccc(C2CN(C)Cc3cc(OCCCN(C)C4CC4)ccc32)cc1 (centres unmarked) [Example 234, Cyclopropyl-{3-[4-(4-methoxy-phenyl)-2-methyl-1,2,3,4-tetrahydro-isoquinolin-7-yloxy]-propyl}-methyl-amine] | 3 | 3
COc1ccc(C2CN(C)Cc3cc(OCCCN4CCN(C)CC4)ccc32)cc1 (centres unmarked) [Example 197, 4-(4-Methoxy-phenyl)-2-methyl-7-[3-(4-methyl-piperazin-1-yl)-propoxy]-1,2,3,4-tetrahydro-isoquinoline] | 15 | 5
COc1ccc(C2CN(C)Cc3cc(OCCCN4CCC5(CC4)OCCO5)ccc32)cc1 (centres unmarked) [Example 41, 7-[3-(1,4-Dioxa-8-aza-spiro[4.5]dec-8-yl)-propoxy]-4-(4-methoxy-phenyl)-2-methyl-1,2,3,4-tetrahydro-isoquinoline] | 14 | 6
COc1ccc(C2CN(C)Cc3cc(OCCCN4CCN(C5CC5)CC4)ccc32)cc1 (centres unmarked) [Example 212, 7-[3-(4-Cyclopropyl-piperazin-1-yl)-propoxy]-4-(4-methoxy-phenyl)-2-methyl-1,2,3,4-tetrahydro-isoquinoline] | 43 | 9
COc1ccc(C2CN(C)Cc3cc(OCCCN4CCOC(CO)C4)ccc32)cc1 (centres unmarked) [Example 184, (4-{3-[4-(4-Methoxy-phenyl)-2-methyl-1,2,3,4-tetrahydro-isoquinolin-7-yloxy]-propyl}-morpholin-2-yl)-methanol] | 2 | 1
CCN1CCC(COc2ccc3c(c2)CN(C)CC3c2ccc(OC)cc2)CC1 (centres unmarked) [Example 87, 7-(1-Ethyl-piperidin-4-ylmethoxy)-4-(4-methoxy-phenyl)-2-methyl-1,2,3,4-tetrahydro-isoquinoline] | 2 | 4
COc1cccc(C2CN(C)Cc3cc(OC4CCN(C5CCC5)CC4)ccc32)c1 (centres unmarked) [Example 99, 7-(1-Cyclobutyl-piperidin-4-yloxy)-4-(3-methoxy-phenyl)-2-methyl-1,2,3,4-tetrahydro-isoquinoline] | 2 | 20
COc1ccc(C2CN(C)Cc3cc(OC[C@@H]4CN(C5CC5)CCO4)ccc32)cc1 (single isomer, unassigned) [Example 260B, 7-(4-Cyclopropyl-morpholin-2S-ylmethoxy)-4-(4-methoxy-phenyl)-2-methyl-1,2,3,4-tetrahydro-isoquinoline] | 29 | 26
COc1ccc(C2CN(C)Cc3cc(OCC4CCN(CC(C)(C)O)CC4)ccc32)cc1 (centres unmarked) [Example 250, 1-{4-[4-(4-Methoxy-phenyl)-2-methyl-1,2,3,4-tetrahydro-isoquinolin-7-yloxymethyl]-piperidin-1-yl}-2-methyl-propan-2-ol] | 34 | 4
COc1ccc(C2CN(C)Cc3c2ccc(OCCCN2CCOCC2)c3C)cc1F (centres unmarked) [Example 268, 4-(3-Fluoro-4-methoxy-phenyl)-2,8-dimethyl-7-(3-morpholin-4-yl-propoxy)-1,2,3,4-tetrahydro-isoquinoline] | 18 | 12
CN1Cc2cc(OCCCN3CCC(F)CC3)ccc2C(c2ccc(OC(F)(F)F)cc2)C1 (centres unmarked) [Example 49, 7-[3-(4-Fluoro-piperidin-1-yl)-propoxy]-2-methyl-4-(4-trifluoromethoxy-phenyl)-1,2,3,4-tetrahydro-isoquinoline] | 18 | 14
COc1ccc(C2CN(C)Cc3cc(OCCCN4CCC(F)CC4)ccc32)c(F)c1 (single isomer, unassigned) [Example 141, 4-(2-Fluoro-4-methoxy-phenyl)-7-[3-(4-fluoro-piperidin-1-yl)-propoxy]-2-methyl-1,2,3,4-tetrahydro-isoquinoline] | – | 3
COc1ccc(C2CN(C)Cc3cc(OCCCN4CCC(F)CC4)ccc32)c(F)c1 (single isomer, unassigned) [Example 140, 4-(2-Fluoro-4-methoxy-phenyl)-7-[3-(4-fluoro-piperidin-1-yl)-propoxy]-2-methyl-1,2,3,4-tetrahydro-isoquinoline] | – | 28
COc1ccc(C2CN(C)Cc3cc(OCC4CCN(C(C)C)CC4)ccc32)c(F)c1 (centres unmarked) [Example 90, 4-(2-Fluoro-4-methoxy-phenyl)-7-(1-isopropyl-piperidin-4-ylmethoxy)-2-methyl-1,2,3,4-tetrahydro-isoquinoline] | – | 9
COc1ccc(C2CN(C)Cc3cc(OCCCN4CCC(F)CC4)ccc32)c(F)c1 (racemic) [Example 139, 4-(2-Fluoro-4-methoxy-phenyl)-7-[3-(4-fluoro-piperidin-1-yl)-propoxy]-2-methyl-1,2,3,4-tetrahydro-isoquinoline] | – | 6
